Results reported in PubChem BioAssay (NCI).
Several values for one entry are separate records, joined by “and”; a condition that tells them apart may be missing. Equal values may be shown once.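 Growth conditions: 96-well plates. Treatment: test compound, 48 hours, 5 concentrations. Analysis: linear interpolation between bracketing concentrations; unreached endpoints set to highest concentration. Here, GI50 denotes the concentration required for 50% inhibition of growth. The concentration for full growth arrest is given as TGI.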

What was measured:
Test in all cases: DTP human tumour cell line panel, 48 h
[1] = tested on: CCRF-CEM leukemia
[2] = tested on: HOP-62 NSCLC
[3] = tested on: IGROV1 ovarian
[4] = tested on: KM12 colon
[5] = tested on: M14 melanoma
[6] = tested on: NCI-H522 lung
[7] = tested on: OVCAR-3 ovarian
[8] = tested on: OVCAR-8 ovarian
[9] = tested on: UO-31 renal
[10] = tested on: HL-60(TB) leukemia

## Nc1nc(N)c2ncn(-c3ccc(Cl)c(Cl)c3)c2n1
[1]
  TGI: 28.8 µM
[2]
  TGI: 87.7 µM
[3]
  TGI: 64.6 µM
[4]
  TGI: 97.5 µM
[5]
  TGI: > 100 µM
[6]
  TGI: > 100 µM
[7]
  TGI: 44.1 µM
[8]
  TGI: > 100 µM
[9]
  TGI: 59.2 µM

## C=C1C(=O)OC2/C=C(\C)C(=O)CC3OC(C)(C)OC3(C)CC(OC(=O)/C(C)=C/C)C12 (centres undefined)
[1]
  TGI: > 21.8 µM
[10]
  TGI: > 23.4 µM
[2]
  TGI: > 100 µM
[3]
  TGI: 32.3 µM
[4]
  TGI: 38 µM
[5]
  TGI: > 70.3 µM
[6]
  TGI: 9.82 µM
[7]
  TGI: > 56.5 µM
[8]
  TGI: > 68.9 µM
[9]
  TGI: 29.3 µM

## C=C(C)[C@@H]1CC[C@]2(C(=O)Nc3ccccn3)CC[C@]3(C)[C@H](CC[C@@H]4[C@@]5(C)CCCNC(C)(C)[C@@H]5CC[C@]43C)[C@@H]12
[1]
  GI50: 3.02 µM
  TGI: > 100 µM
[10]
  GI50: 1.82 µM
  TGI: 4.28 µM
[4]
  GI50: 1.82 µM
  TGI: 3.36 µM
[7]
  GI50: 1.54 µM
  TGI: 2.92 µM
[9]
  GI50: 1.44 µM
  TGI: 2.8 µM

## O=S(=O)(O)c1cc(N=Nc2cc(S(=O)(=O)O)c3ccccc3c2O)ccc1/C=C/c1ccc(N=Nc2cc(S(=O)(=O)O)c3ccccc3c2O)cc1S(=O)(=O)O
[1]
  GI50: 32.5 µM
  TGI: 42.5 µM and 92.7 µM
[10]
  GI50: 43.4 µM
  TGI: 41.2 µM and 104 µM
[2]
  TGI: > 1000 µM
[3]
  TGI: > 873 µM
[4]
  TGI: > 365 µM
[5]
  TGI: > 355 µM
[6]
  TGI: > 669 µM
[7]
  TGI: > 1000 µM
[8]
  TGI: > 1000 µM
[9]
  TGI: > 527 µM

## c1ccc(-n2cnnc2-c2nsc3ccccc23)cc1
[1]
  TGI: > 100 µM
[10]
  TGI: > 100 µM
[2]
  TGI: > 100 µM
[3]
  TGI: > 100 µM
[4]
  TGI: > 100 µM
[5]
  TGI: > 100 µM
[7]
  TGI: > 100 µM
[8]
  TGI: > 100 µM
[9]
  TGI: > 100 µM

## C=C1CC23CCC4C(C)(C(=O)O)CCCC4(C)C2CCC1C3 (centres undefined)
[1]
  TGI: > 100 µM
[2]
  TGI: > 100 µM
[3]
  TGI: 94.9 µM
[4]
  TGI: > 100 µM
[5]
  TGI: > 100 µM
[6]
  TGI: 89.7 µM
[7]
  TGI: > 100 µM
[8]
  TGI: > 100 µM
[9]
  TGI: 88.2 µM

## O=[N+]([O-])c1ccc(/C=N\Nc2ccc([N+](=O)[O-])cn2)cc1
[1]
  TGI: > 100 µM
[10]
  TGI: > 100 µM
[2]
  TGI: > 100 µM
[3]
  TGI: > 100 µM
[4]
  TGI: > 100 µM
[5]
  TGI: > 100 µM
[6]
  TGI: > 100 µM
[7]
  TGI: > 100 µM
[8]
  TGI: > 100 µM
[9]
  TGI: > 100 µM

## CCN(CC)C(=S)SC(=S)N(CC)CC
[10]
  TGI: > 100 µM
[2]
  TGI: > 100 µM
[3]
  TGI: > 100 µM
[4]
  TGI: 64.2 µM
[5]
  TGI: > 100 µM
[6]
  TGI: 18.2 µM
[7]
  TGI: > 94.4 µM
[8]
  TGI: > 100 µM
[9]
  TGI: > 76.3 µM

## N=C(N)c1ccc(-c2ccc(-c3cncc4ccccc34)s2)cc1F
[4]
  GI50: 1.83 µM
  TGI: 3.51 µM
[5]
  GI50: 1.8 µM
  TGI: 3.4 µM
[6]
  GI50: 2.2 µM
  TGI: 5.56 µM
[7]
  GI50: 1.73 µM
  TGI: 3.24 µM
[9]
  GI50: 1.77 µM
  TGI: 3.41 µM

## O=C(/C=c1\oc(=O)/c(=C/C(=O)c2ccc(Cl)cc2)oc1=O)c1ccc(Cl)cc1
[1]
  TGI: > 100 µM
[10]
  TGI: > 100 µM
[2]
  TGI: > 100 µM
[3]
  TGI: > 100 µM
[4]
  TGI: > 100 µM
[5]
  TGI: > 100 µM
[6]
  TGI: 72.9 µM
[7]
  TGI: > 100 µM
[8]
  TGI: > 100 µM
[9]
  TGI: > 100 µM

## CC(C)=CCc1c(O)ccc2c1OC1c3ccc(O)c(CC=C(C)C)c3OCC21 (centres undefined)
[1]
  TGI: 43 µM
[10]
  TGI: 31.4 µM
[2]
  TGI: 23.9 µM
[3]
  TGI: 25.8 µM
[4]
  TGI: 33.7 µM
[6]
  TGI: 25.5 µM
[7]
  TGI: 27 µM
[8]
  TGI: 52.6 µM
[9]
  TGI: 24 µM

## C=C(C)C(=O)OC1C(C(C)CCCO)=C(CO)CC2OC(=O)C(=C)C21 (centres undefined)
[1]
  TGI: > 100 µM
[10]
  TGI: > 100 µM
[2]
  TGI: > 100 µM
[3]
  TGI: 38.8 µM
[4]
  TGI: 27.7 µM
[5]
  TGI: 33.8 µM
[6]
  TGI: 13.1 µM
[7]
  TGI: 54.5 µM
[8]
  TGI: > 100 µM

## COc1cc(C(C)(C)C)cc(OC)c1C(O)(c1c(OC)cc(C(C)(C)C)cc1OC)c1c(OC)cc(C(C)(C)C)cc1OC
[10]
  GI50: 0.14 µM
  TGI: 0.394 µM
[3]
  GI50: 0.316 µM
  TGI: 0.873 µM
[4]
  GI50: 0.349 µM
  TGI: 1.05 µM
[5]
  GI50: 0.381 µM
  TGI: 1.13 µM
[6]
  GI50: 0.237 µM
  TGI: 0.768 µM
[7]
  GI50: 0.278 µM
  TGI: 0.894 µM
[9]
  GI50: 0.241 µM
  TGI: 0.745 µM

## C=C(C)C1CC2=C(O1)C(=O)c1ccccc1C2=O (centres undefined)
[1]
  TGI: 52.7 µM
[10]
  TGI: 15 µM
[2]
  TGI: 35.2 µM
[3]
  TGI: 36.1 µM
[4]
  TGI: 33.4 µM
[5]
  TGI: 33.1 µM
[6]
  TGI: 39.4 µM
[7]
  TGI: 34.4 µM
[8]
  TGI: 35.6 µM
